Data on 24 compounds can be found in ChEMBL document CHEMBL3763148, “Synthesis, structure elucidation, DNA-PK and PI3K and anti-cancer activity of 8- and 6-aryl-substituted-1-3-benzoxazines” (Eur J Med Chem, 2016).

The target of test [1] is T1, DNA-dependent protein kinase catalytic subunit (Homo sapiens, UniProt P78527). As to the kind of experiment: Inhibition of human DNA-PK using EPPLSQEAFADLWKK as substrate at 10 uM by HTRF assay. (In TR-FRET formats the signal depends on donor and acceptor labels being close together.)
Test [2] has as its target Phosphatidylinositol 4,5-bisphosphate 3-kinase catalytic subunit gamma isoform (Homo sapiens) (UniProt P48736). As to the kind of experiment: Inhibition of PI3Kgamma (unknown origin) at 10 uM incubated for 60 mins by kinase-glo luminescence assay. For orientation: Kinase-Glo measures the ATP left after a reaction by luminescence.
The target of test [3] is T2, Phosphatidylinositol 4,5-bisphosphate 3-kinase catalytic subunit delta isoform (Homo sapiens, UniProt O00329).
T2 sequence (O00329 whole entry): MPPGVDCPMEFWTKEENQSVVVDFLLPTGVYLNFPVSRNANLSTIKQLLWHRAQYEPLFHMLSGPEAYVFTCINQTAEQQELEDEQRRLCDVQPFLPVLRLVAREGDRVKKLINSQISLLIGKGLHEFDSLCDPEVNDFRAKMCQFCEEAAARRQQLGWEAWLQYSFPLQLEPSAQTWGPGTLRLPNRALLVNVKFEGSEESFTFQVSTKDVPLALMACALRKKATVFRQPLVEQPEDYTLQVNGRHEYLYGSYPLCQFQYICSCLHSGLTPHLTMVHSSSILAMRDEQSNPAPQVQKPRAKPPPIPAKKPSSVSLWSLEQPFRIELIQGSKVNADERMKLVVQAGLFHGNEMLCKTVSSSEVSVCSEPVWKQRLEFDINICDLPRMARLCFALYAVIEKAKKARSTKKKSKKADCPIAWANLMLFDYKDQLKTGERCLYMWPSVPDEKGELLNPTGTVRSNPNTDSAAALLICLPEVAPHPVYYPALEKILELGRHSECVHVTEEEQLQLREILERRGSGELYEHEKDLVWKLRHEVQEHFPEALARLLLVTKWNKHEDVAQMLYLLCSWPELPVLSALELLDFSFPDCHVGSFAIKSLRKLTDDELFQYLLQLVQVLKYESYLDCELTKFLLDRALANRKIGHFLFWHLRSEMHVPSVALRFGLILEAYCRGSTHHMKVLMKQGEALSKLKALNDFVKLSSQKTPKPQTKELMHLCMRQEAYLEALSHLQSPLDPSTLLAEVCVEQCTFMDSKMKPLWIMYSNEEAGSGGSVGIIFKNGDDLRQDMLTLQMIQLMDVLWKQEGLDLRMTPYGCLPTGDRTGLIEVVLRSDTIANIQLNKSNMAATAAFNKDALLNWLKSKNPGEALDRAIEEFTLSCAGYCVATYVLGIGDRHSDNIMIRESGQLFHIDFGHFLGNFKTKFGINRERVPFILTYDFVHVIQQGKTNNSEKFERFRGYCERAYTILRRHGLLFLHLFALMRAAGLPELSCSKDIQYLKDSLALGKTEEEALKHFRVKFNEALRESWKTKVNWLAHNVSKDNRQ
As to the kind of experiment: Inhibition of PI3Kdelta (unknown origin) incubated for 60 mins by kinase-glo luminescence assay.

Test [4] has as its target T3, Phosphatidylinositol 4,5-bisphosphate 3-kinase catalytic subunit beta isoform (Homo sapiens, UniProt P42338). Nature of the test: Inhibition of PI3Kbeta (unknown origin) incubated for 60 mins by kinase-glo luminescence assay.
Target sequence in this assay (P42338 whole entry, canonical isoform): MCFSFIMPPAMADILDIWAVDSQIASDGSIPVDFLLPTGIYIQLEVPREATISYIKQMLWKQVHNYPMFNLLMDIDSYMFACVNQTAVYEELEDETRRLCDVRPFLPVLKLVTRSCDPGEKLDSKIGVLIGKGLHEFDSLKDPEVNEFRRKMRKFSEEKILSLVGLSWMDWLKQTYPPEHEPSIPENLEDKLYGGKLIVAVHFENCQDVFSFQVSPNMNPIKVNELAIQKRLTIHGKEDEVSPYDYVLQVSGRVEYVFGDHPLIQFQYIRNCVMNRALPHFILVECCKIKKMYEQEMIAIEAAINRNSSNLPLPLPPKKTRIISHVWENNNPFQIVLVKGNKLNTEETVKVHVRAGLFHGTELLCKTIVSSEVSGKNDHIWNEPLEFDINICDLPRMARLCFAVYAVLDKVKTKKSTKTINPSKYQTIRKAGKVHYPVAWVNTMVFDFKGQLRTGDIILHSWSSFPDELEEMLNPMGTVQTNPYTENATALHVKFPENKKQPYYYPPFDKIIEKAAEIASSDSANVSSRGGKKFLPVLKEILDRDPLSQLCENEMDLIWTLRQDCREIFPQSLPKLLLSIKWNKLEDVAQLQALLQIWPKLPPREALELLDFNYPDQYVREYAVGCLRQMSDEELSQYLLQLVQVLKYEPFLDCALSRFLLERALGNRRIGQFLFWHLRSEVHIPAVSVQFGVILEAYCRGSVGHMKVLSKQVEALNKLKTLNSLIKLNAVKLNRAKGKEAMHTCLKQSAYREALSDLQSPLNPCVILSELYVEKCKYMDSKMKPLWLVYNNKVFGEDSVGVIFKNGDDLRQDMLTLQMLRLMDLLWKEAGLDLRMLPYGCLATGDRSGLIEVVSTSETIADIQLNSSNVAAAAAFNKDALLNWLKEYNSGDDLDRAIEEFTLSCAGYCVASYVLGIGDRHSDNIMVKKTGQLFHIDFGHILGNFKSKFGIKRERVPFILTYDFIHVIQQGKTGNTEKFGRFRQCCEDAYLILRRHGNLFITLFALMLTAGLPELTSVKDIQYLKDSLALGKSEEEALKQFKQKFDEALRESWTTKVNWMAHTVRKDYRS
Test [5] has as its target T1, DNA-dependent protein kinase catalytic subunit. Nature of the test: Inhibition of human DNA-PK using EPPLSQEAFADLWKK as substrate by HTRF assay.
Test [6] has as its target T4, Phosphatidylinositol 4,5-bisphosphate 3-kinase catalytic subunit alpha isoform (Homo sapiens, UniProt P42336). Nature of the test: Inhibition of PI3Kalpha (unknown origin) incubated for 60 mins by kinase-glo luminescence assay.
Test [7] deals with T4, Phosphatidylinositol 4,5-bisphosphate 3-kinase catalytic subunit alpha isoform. Nature of the test: Inhibition of PI3Kalpha (unknown origin) at 10 uM incubated for 60 mins by kinase-glo luminescence assay.
The target in test [8] is T5, Phosphatidylinositol 4,5-bisphosphate 3-kinase catalytic subunit delta isoform (Homo sapiens) (UniProt O00329).
T5 sequence (whole entry): T2 sequence (O00329 whole entry)
Nature of the test: Inhibition of PI3Kdelta (unknown origin) at 10 uM incubated for 60 mins by kinase-glo luminescence assay.

The target of test [9] is T3, Phosphatidylinositol 4,5-bisphosphate 3-kinase catalytic subunit beta isoform. Nature of the test: Inhibition of PI3Kbeta (unknown origin) at 10 uM incubated for 60 mins by kinase-glo luminescence assay.
Target sequence in this assay (P42338 whole entry, looked up, canonical isoform): as the sequence (P42338 whole entry, canonical isoform) above

Broadly, the inhibition is the change of the read-out against control, counted positive when it falls. Lower therefore signals a weak effect. In general, IC50 refers to the concentration at which inhibition is half-maximal. Low readings indicate greater potency, high ones weaker potency.

The structures appear in SMILES notation.

Sequence of Phosphatidylinositol 4,5-bisphosphate 3-kinase catalytic subunit gamma isoform (Homo sapiens) (P48736 whole entry, looked up, canonical isoform): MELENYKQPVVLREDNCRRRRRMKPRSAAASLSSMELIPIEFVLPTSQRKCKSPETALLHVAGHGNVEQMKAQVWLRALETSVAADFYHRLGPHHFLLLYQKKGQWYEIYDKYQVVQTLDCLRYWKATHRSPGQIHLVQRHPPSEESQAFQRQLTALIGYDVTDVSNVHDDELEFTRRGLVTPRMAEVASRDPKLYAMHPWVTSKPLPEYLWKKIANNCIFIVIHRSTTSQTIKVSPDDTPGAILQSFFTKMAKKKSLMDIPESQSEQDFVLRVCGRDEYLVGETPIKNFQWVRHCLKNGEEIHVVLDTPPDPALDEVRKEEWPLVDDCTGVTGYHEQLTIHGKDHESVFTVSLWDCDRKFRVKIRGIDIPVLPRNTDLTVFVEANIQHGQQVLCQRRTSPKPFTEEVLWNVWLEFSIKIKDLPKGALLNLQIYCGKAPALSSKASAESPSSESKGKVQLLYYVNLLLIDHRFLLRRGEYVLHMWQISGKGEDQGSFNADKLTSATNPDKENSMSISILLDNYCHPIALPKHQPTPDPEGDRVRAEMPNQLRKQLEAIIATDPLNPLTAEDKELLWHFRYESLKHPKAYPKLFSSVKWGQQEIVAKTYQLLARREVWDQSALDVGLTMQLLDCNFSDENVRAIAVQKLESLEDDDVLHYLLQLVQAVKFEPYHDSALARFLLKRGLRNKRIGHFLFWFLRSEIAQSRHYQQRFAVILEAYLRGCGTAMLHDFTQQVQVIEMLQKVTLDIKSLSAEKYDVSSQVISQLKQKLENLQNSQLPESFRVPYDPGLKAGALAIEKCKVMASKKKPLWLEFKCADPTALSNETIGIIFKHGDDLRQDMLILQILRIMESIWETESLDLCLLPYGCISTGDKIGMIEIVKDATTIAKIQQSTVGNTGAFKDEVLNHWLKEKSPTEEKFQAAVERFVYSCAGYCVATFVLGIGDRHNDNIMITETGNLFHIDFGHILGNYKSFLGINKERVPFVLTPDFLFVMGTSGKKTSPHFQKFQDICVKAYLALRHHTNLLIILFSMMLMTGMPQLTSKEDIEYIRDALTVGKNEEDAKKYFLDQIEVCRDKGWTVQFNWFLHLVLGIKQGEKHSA
T4 sequence (P42336 whole entry, canonical isoform): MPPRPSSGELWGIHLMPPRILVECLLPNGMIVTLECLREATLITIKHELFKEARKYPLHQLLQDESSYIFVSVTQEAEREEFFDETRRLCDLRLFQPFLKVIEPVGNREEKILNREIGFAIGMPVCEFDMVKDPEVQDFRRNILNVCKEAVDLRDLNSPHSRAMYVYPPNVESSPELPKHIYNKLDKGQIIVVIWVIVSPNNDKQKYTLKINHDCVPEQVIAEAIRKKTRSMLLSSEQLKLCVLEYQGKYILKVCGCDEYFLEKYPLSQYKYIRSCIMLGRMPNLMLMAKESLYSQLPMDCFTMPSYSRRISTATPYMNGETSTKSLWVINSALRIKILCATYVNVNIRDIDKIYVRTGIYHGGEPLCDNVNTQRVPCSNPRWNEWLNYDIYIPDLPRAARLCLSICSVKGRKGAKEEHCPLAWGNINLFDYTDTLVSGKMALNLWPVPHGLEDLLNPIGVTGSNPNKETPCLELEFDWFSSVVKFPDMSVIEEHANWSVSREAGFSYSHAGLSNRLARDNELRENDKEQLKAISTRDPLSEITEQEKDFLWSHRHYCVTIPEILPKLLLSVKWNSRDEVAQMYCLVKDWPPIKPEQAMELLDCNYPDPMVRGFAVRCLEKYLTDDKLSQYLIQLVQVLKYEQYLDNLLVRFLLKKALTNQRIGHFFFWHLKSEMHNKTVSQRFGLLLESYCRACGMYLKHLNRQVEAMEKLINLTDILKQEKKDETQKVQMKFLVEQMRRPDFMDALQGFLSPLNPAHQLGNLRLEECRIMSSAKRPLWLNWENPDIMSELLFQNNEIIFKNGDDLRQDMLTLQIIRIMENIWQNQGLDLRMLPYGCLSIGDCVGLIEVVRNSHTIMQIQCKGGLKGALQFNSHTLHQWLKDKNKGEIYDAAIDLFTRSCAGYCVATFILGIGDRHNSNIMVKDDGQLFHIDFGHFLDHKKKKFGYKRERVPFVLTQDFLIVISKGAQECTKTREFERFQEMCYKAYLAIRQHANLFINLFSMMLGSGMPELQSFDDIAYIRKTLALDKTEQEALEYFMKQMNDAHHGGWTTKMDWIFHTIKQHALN

Compound `O=c1nc(N2CCOCC2)oc2ccc(-c3cccs3)cc12` displayed an inhibition in [1] of 24%.
In turn, `O=c1nc(N2CCOCC2)oc2c(-c3ccc(CO)cc3)cccc12` showed an inhibition in test [2] of 31%. Besides, the 50% inhibitory concentration (IC50) in [3] worked out at 9 µM; in test [4] it was 3.2 µM; in test [5], 15.7 µM; in [6] it was 10 µM.
`Nc1cccc(-c2cccc3c(=O)nc(N4CCOCC4)oc23)c1`: the inhibition in test [7] is 13%; in test [2], 0%; in test [8], 4%. The IC50 in test [4] worked out at 10 µM; in test [5] it was 63.5 µM.
For `O=c1nc(N2CCOCC2)oc2ccc(-c3cc4ccccc4s3)cc12`, the inhibition in test [7] was determined as 3%; in test [9], 20%; in [2] it was 3%; in test [8], 0%; in test [1], 0%.
As to `O=c1nc(N2CCOCC2)oc2ccc(-c3ccccc3)cc12`, the inhibition in test [7] came out at 2%; in [9], 0%; in [2] it was 9%; in [8], 0%; in test [1], 1%.
Take `O=c1nc(N2CCOCC2)oc2c(-c3ccc(Cl)cc3)cccc12`: the inhibition was 34% in test [9] and 16% in [2]. Besides, the IC50 in test [3] was 10 µM; in test [5] it was 10.9 µM; in test [6], over 10 µM.
As for `O=c1nc(N2CCOCC2)oc2ccc(/C=C/c3ccccc3)cc12`, the inhibition in test [7] came out at 3%; in [9], 29%; in test [2] it was 4%; in test [8], 0%; in [1], 23%.
With `O=c1nc(N2CCOCC2)oc2c(-c3cccc4c3sc3ccccc34)cc(Cl)cc12`, the inhibition in [7] was determined as 0%; in test [9] it was 59%; in test [2], 1%; in test [8] it was 36%. The compound further displayed a half-inhibitory concentration (IC50) in [5] of 0.564 µM.
Consider `O=c1nc(N2CCOCC2)oc2c(-c3cc4ccccc4s3)cc(Cl)cc12`, for which the inhibition in test [7] is 35%; in test [9], 15%; in test [2], 14%; in [8], 16%. Further, inhibition in test [5] was half-maximal at 5.77 µM (IC50).
In the case of `O=c1cc(N2CCOCC2)oc2c(-c3ccccc3)cccc12` [LY-294002], the figures for the IC50 in test [3] and in test [5] were 0.95 µM and 0.3 µM, respectively.
As for `O=c1nc(N2CCOCC2)oc2ccc(-c3ccc(Cl)cc3)cc12`, the inhibition in test [7] came to 10%; in test [9], 0%; in [2], 10%; in test [8], 0%; in [1], 7%.
As for `O=c1nc(N2CCOCC2)oc2ccc(-c3cccc(-c4ccccc4)c3)cc12`, the inhibition in [7] was 11%; in test [9] it was 13%; in test [2], 0%; in [8], 0%; in test [1], 7%.
Take `O=c1nc(N2CCOCC2)oc2c(-c3cc4ccccc4s3)cccc12`: the inhibition in test [9] is 15%; in [2] it was 17%. Besides, the figures for the half-inhibitory concentration (IC50) in test [3], in [5] and in [6] were 3.7 µM, 2.12 µM and 10 µM, respectively.
In the case of `O=c1nc(N2CCOCC2)oc2c(-c3cccs3)cc(Cl)cc12`, the inhibition in test [7] came out at 42%; in test [9] it was 0%; in test [2], 0%. In addition, the half-maximal inhibitory concentration (IC50) in test [3] was found to be 10 µM; in test [5], 6.05 µM.
`NC(=O)c1ccc(-c2ccc3oc(N4CCOCC4)nc(=O)c3c2)cc1` displayed an inhibition in test [1] of 8%.
For `COc1ccc(-c2ccc3oc(N4CCOCC4)nc(=O)c3c2)cc1`, the inhibition came out at 7% in [7]; 17% in test [9]; 0% in [2]; 0% in [8]; 8% in test [1].
Regarding `O=c1nc(N2CCOCC2)oc2ccc(-c3cccnc3)cc12`, the inhibition in test [7] is 11%; in test [9] it was 36%; in test [2] it was 0%; in [8], 3%; in [1] it was 6%.
In the case of `O=c1nc(N2CCOCC2)oc2ccc(-c3ccsc3)cc12`, the inhibition in test [1] was determined as 21%.
On to `O=c1nc(N2CCOCC2)oc2c(-c3cccnc3)cccc12`, for which the inhibition in test [7] came to 26%; in test [2], 24%; in [8] it was 37%. The values for the 50% inhibitory concentration (IC50) in test [4] and in test [5] were over 10 µM and 78.4 µM, respectively.
For `O=c1nc(N2CCOCC2)oc2ccc(-c3cccc4ccccc34)cc12`, the inhibition in test [7] was determined as 10%; in test [9], 0%; in test [2], 4%; in test [8], 0%; in test [1], 4%.
In turn, `Nc1cccc(-c2ccc3oc(N4CCOCC4)nc(=O)c3c2)c1` gave an inhibition in test [1] of 7%.
For `O=c1nc(N2CCOCC2)oc2ccc(-c3cccc4c3oc3ccccc34)cc12`, the inhibition in test [7] was 5%; in [9] it was 6%; in test [2], 0%; in test [8], 0%; in test [1], 12%.
Consider `O=c1nc(N2CCOCC2)oc2ccc(-c3ccc(CO)cc3)cc12`, for which the inhibition in [7] was 7%; in [9], 0%; in test [2], 0%; in test [8], 0%; in test [1], 11%.
For `COc1ccc(-c2cc(Cl)cc3c(=O)nc(N4CCOCC4)oc23)cc1`, the inhibition in test [7] was 16%; in test [9], 0%; in test [2], 0%. Besides, the results for the half-inhibitory concentration (IC50) in test [3] and in test [5] were 2.6 µM and 12.3 µM, respectively.
